What was measured:
[1] = target: T1, TYK2 JH2 (Homo sapiens, UniProt P29597); test: TYK2 JH2 binding assay (KINOMEscan KdELECT competitive binding); conditions: TYK2 JH2 domain, DiscoverX KINOMEscan KdELECT (Assay A); read-out: Biochemical TYK2_DiscoverX_JH2_BND_Kd
T1 construct: purchased DiscoverX (KINOMEscan KdELECT service); host or cells: E. coli BL21-derived (T7 phage display) or HEK-293
Procedure, shortened: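 Test compounds were titrated in 11 three-fold steps against JH2 fragment captured on ligand-loaded magnetic beads, with 1 h incubation at room temperature and DMSO at 0.9%. Eluted kinase was quantified by qPCR, and Kd was fitted from the dose series.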

[2] = test system: JAK1/TYK2 pSTAT5 (Tyr694/699) in THP-1 cell line; test: IFNa-stimulated JAK1/TYK2 pSTAT5 (Tyr694/699) inhibition cellular assay, AlphaLISA; assay type: cell-based; conditions: Homo sapiens; THP-1 cells, IFNa-stimulated, AlphaLISA (Assay B); read-out: Cellular_THP1_IFNa-pSTATS_TYK2
Procedure, shortened: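 THP-1 cells (2e4/well) in HBSS preincubated 1 h at 37° C. with compound (final 10000–0.04 nM, 8 points, 6-fold), then stimulated with IFNa (100 ng/mL stock) for 30 min before lysis. pSTAT5 (Tyr694/699) read by AlphaLISA at 615 nm; IC50 from four-parameter logistic fit with bottom fixed at 0 and Hill slope at −1.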

T1 sequence (P29597 589-875 limits assumed): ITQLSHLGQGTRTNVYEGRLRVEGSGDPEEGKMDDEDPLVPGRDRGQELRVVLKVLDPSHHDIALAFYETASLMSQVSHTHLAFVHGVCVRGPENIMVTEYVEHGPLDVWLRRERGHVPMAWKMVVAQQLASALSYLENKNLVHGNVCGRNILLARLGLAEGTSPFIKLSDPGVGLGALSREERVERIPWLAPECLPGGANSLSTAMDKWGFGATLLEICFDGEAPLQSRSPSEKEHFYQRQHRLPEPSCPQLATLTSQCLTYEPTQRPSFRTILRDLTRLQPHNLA

SMILES	Kd [1] [nM]	IC50 [2] [nM]
CNc1ncc(-c2nc3cc(OC4CN(C(C)=O)C4)ccc3o2)c2cc(NC(=O)C3CC3)ncc12 [Example 230, N-(5-(5-((1-acetylazetidin-3-yl)oxy)benzo[d]oxazol-2-yl)-8-(methylamino)-2,7-naphthyridin-3-yl)cyclopropanecarboxamide]	≤ 100	≤ 500
CNc1ncc(-c2nc3cc(OCCOC)ccc3o2)c2cc(NC(=O)C3CC3)ncc12 [Example 231, N-(5-(5-(2-methoxyethoxy)benzo[d]oxazol-2-yl)-8-(methylamino)-2,7-naphthyridin-3-yl)cyclopropanecarboxamide]	≤ 100	≤ 500
CNc1ncc(-c2nc3cc(O[C@H]4C[C@@H](C#N)C4)ccc3o2)c2cc(NC(=O)C3CC3)ncc12 [Example 232, N-(5-(5-((1s,3s)-3-cyanocyclobutoxy)benzo[d]oxazol-2-yl)-8-(methylamino)-2,7-naphthyridin-3-yl)cyclopropanecarboxamide]	≤ 100	≤ 500
CNc1ncc(-c2nc3cc(O[C@H]4C[C@H](C#N)C4)ccc3o2)c2cc(NC(=O)C3CC3)ncc12 [Example 233, N-(5-(5-((1r,3r)-3-cyanocyclobutoxy)benzo[d]oxazol-2-yl)-8-(methylamino)-2,7-naphthyridin-3-yl)cyclopropanecarboxamide]	≤ 100	≤ 500
CNc1ncc(-c2nc3cc(OCc4ccccc4)ccc3o2)c2cc(NC(=O)C3CC3)ncc12 [Example 234, N-(5-(5-(benzyloxy)benzo[d]oxazol-2-yl)-8-(methylamino)-2,7-naphthyridin-3-yl)cyclopropanecarboxamide]	≤ 100	≤ 500
CNc1ncc(-c2nc3cc(OCCN4CCOCC4)ccc3o2)c2cc(NC(=O)C3CC3)ncc12 [Example 235, N-(8-(methylamino)-5-(5-(2-morpholinoethoxy)benzo[d]oxazol-2-yl)-2,7-naphthyridin-3-yl)cyclopropanecarboxamide]	≤ 100	≤ 500
CNc1ncc(-c2nc3cc(OCC(C)(C)C#N)ccc3o2)c2cc(NC(=O)C3CC3)ncc12 [Example 236, N-(5-(5-(2-cyano-2-methylpropoxy)benzo[d]oxazol-2-yl)-8-(methylamino)-2,7-naphthyridin-3-yl)cyclopropanecarboxamide]	≤ 100	≤ 500
CNc1ncc(-c2nc3cc(C(N)=O)ccc3o2)c2cc(NC(=O)C3CC3)ncc12 [Example 237, 2-(6-(cyclopropanecarboxamido)-1-(methylamino)-2,7-naphthyridin-4-yl)benzo[d]oxazole-5-carboxamide]	≤ 100	≤ 500
CNC(=O)c1ccc2oc(-c3cnc(NC)c4cnc(NC(=O)C5CC5)cc34)nc2c1 [Example 238, 2-(6-(cyclopropanecarboxamido)-1-(methylamino)-2,7-naphthyridin-4-yl)-N-methylbenzo[d]oxazole-5-carboxamide]	≤ 100	≤ 500
CNc1ncc(-c2nc3cc(OC[C@@H](C)O)ccc3o2)c2cc(NC(=O)C3CC3)ncc12 [Example 239, (R)—N-(5-(5-(2-hydroxypropoxy)benzo[d]oxazol-2-yl)-8-(methylamino)-2,7-naphthyridin-3-yl)cyclopropanecarboxamide]	≤ 100	≤ 500
CNc1ncc(-c2nc3cc(OC[C@H](C)O)ccc3o2)c2cc(NC(=O)C3CC3)ncc12 [Example 240, (S)—N-(5-(5-(2-hydroxypropoxy)benzo[d]oxazol-2-yl)-8-(methylamino)-2,7-naphthyridin-3-yl)cyclopropanecarboxamide]	≤ 100	≤ 500
CNc1ncc(-c2nc3cc(OC[C@@H](C)OC)ccc3o2)c2cc(NC(=O)C3CC3)ncc12 [Example 241, (R)—N-(5-(5-(2-methoxypropoxy)benzo[d]oxazol-2-yl)-8-(methylamino)-2,7-naphthyridin-3-yl)cyclopropanecarboxamide]	≤ 100	≤ 500
CNc1ncc(-c2nc3cc(OC[C@H](C)OC)ccc3o2)c2cc(NC(=O)C3CC3)ncc12 [Example 242, (S)—N-(5-(5-(2-methoxypropoxy)benzo[d]oxazol-2-yl)-8-(methylamino)-2,7-naphthyridin-3-yl)cyclopropanecarboxamide]	≤ 100	≤ 500
CNc1ncc(-c2nc3cc(C(C)(F)F)ccc3o2)c2cc(NC(=O)C3CC3)ncc12 [Example 243, N-(5-(5-(1,1-difluoroethyl)benzo[d]oxazol-2-yl)-8-(methylamino)-2,7-naphthyridin-3-yl)cyclopropanecarboxamide]	≤ 100	≤ 500
CNc1ncc(-c2nc3cc(C(F)F)ccc3o2)c2cc(NC(=O)C3CC3)ncc12 [Example 244, N-(5-(5-(difluoromethyl)benzo[d]oxazol-2-yl)-8-(methylamino)-2,7-naphthyridin-3-yl)cyclopropanecarboxamide]	≤ 100	≤ 500
CNc1ncc(-c2nc3cc(CC#N)ccc3o2)c2cc(NC(=O)C3CC3)ncc12 [Example 245, N-(5-(5-(cyanomethyl)benzo[d]oxazol-2-yl)-8-(methylamino)-2,7-naphthyridin-3-yl)cyclopropanecarboxamide]	≤ 100	≤ 500
CCOc1ccc2oc(-c3cnc(NC)c4cnc(NC(=O)C5CC5)cc34)nc2c1 [Example 246, N-(5-(5-ethoxybenzo[d]oxazol-2-yl)-8-(methylamino)-2,7-naphthyridin-3-yl)cyclopropanecarboxamide]	≤ 100	≤ 500
CNc1ncc(-c2nc3cc(OCC(F)F)ccc3o2)c2cc(NC(=O)C3CC3)ncc12 [Example 247, N-(5-(5-(2,2-difluoroethoxy)benzo[d]oxazol-2-yl)-8-(methylamino)-2,7-naphthyridin-3-yl)cyclopropanecarboxamide]	≤ 100	≤ 500
CNc1ncc(-c2nc3cc(COC)ccc3o2)c2cc(NC(=O)C3CC3)ncc12 [Example 248, N-(5-(5-(methoxymethyl)benzo[d]oxazol-2-yl)-8-(methylamino)-2,7-naphthyridin-3-yl)cyclopropanecarboxamide]	≤ 100	≤ 500
CNc1ncc(-c2nc3cc(C4CCOCC4C)ccc3o2)c2cc(NC(=O)C3CC3)ncc12 (centres unmarked) [Example 249, N-(8-(methylamino)-5-(5-(3-methyltetrahydro-2H-pyran-4-yl)benzo[d]oxazol-2-yl)-2,7-naphthyridin-3-yl)cyclopropanecarboxamide]	≤ 100	≤ 500
CNc1ncc(-c2nc3cc(OC4CN(S(C)(=O)=O)C4)ccc3o2)c2cc(NC(=O)C3CC3)ncc12 [Example 250, N-(8-(methylamino)-5-(5-((1-(methylsulfonyl)azetidin-3-yl)oxy)benzo[d]oxazol-2-yl)-2,7-naphthyridin-3-yl)cyclopropanecarboxamide]	≤ 100	≤ 500
CNc1ncc(-c2nc3cc(OC4CN(C5CCOC5)C4)ccc3o2)c2cc(NC(=O)C3CC3)ncc12 (centres unmarked) [Example 251, N-(8-(methylamino)-5-(5-((1-(tetrahydrofuran-3-yl)azetidin-3-yl)oxy)benzo[d]oxazol-2-yl)-2,7-naphthyridin-3-yl)cyclopropanecarboxamide]	≤ 100	≤ 500
CNc1ncc(-c2nc3cc(C4CN(S(C)(=O)=O)C4)ccc3o2)c2cc(NC(=O)C3CC3)ncc12 [Example 252, N-(8-(methylamino)-5-(5-(1-(methylsulfonyl)azetidin-3-yl)benzo[d]oxazol-2-yl)-2,7-naphthyridin-3-yl)cyclopropanecarboxamide]	≤ 100	≤ 500
CNc1ncc(-c2nc3cc(OC4CCOCC4)ccc3o2)c2cc(NC(=O)C3CC3)ncc12 [Example 253, N-(8-(methylamino)-5-(5-((tetrahydro-2H-pyran-4-yl)oxy)benzo[d]oxazol-2-yl)-2,7-naphthyridin-3-yl)cyclopropanecarboxamide]	≤ 100	≤ 500
CNc1ncc(-c2nc3ccc(CO)cc3o2)c2cc(NC(=O)C3CC3)ncc12 [Example 254, N-(5-(6-(hydroxymethyl)benzo[d]oxazol-2-yl)-8-(methylamino)-2,7-naphthyridin-3-yl)cyclopropanecarboxamide]	≤ 100	≤ 500
CNc1ncc(-c2nc3cc(CC(F)(F)F)ccc3o2)c2cc(NC(=O)C3CC3)ncc12 [Example 255, N-(8-(methylamino)-5-(5-(2,2,2-trifluoroethyl)benzo[d]oxazol-2-yl)-2,7-naphthyridin-3-yl)cyclopropanecarboxamide]	≤ 100	≤ 500
CNc1ncc(-c2nc3cc(OCC(C)(C)OC)ccc3o2)c2cc(NC(=O)C3CC3)ncc12 [Example 256, N-(5-(5-(2-methoxy-2-methylpropoxy)benzo[d]oxazol-2-yl)-8-(methylamino)-2,7-naphthyridin-3-yl)cyclopropanecarboxamide]	≤ 100	≤ 500
CNc1ncc(-c2nc3cc(CS(C)(=O)=O)ccc3o2)c2cc(NC(=O)C3CC3)ncc12 [Example 257, N-(8-(methylamino)-5-(5-((methylsulfonyl)methyl)benzo[d]oxazol-2-yl)-2,7-naphthyridin-3-yl)cyclopropanecarboxamide]	≤ 100	≤ 500
